We go through one compound from US11911373B2, “Attention evaluation and methods for medicating” (TECHNION RESEARCH & DEVELOPMENT FOUNDATION LIMITED, priority 2018, dated 2024).

Series [1] has as its system rat. As to conditions: rat model, cited Avital et al. 2011, PLoS One 6, e22059; cited from earlier work.
In series [2] the test system is children suffering from ADHD. Description: Electro dermal activity (EDA), skin conductance. In kind it is in vivo, human. As to conditions: baseline higher than controls. The source says: Test subjects were escorted by their parents, and were asked not to take the MPH treatment in the morning of the experiment, and not to drink stimulating beverages such as coffee or energy drinks. The parents signed the consent form and provided the demographic data, following which the subject commenced the 3 steps procedure: • Baseline ASAT and EDA tests: The child was asked to sit on a stable chair in front of a computer screen, connected with EDA and EMG electrodes and requested to follow the instructions before wearing the headphones: • “You will be hearing different types of tones, some will be powerful and some will be moderate. […] When the session ends, all tones will be terminated” • Children diagnosed with ADHD were asked to take the MPH treatment and come back to the test room after 50 minutes. Controls were asked to take a break and return to the test room after 50 minutes. • Post 1-hour ASAT and EDA tests were conducted as at step 1. […]
Electrodermal activity was monitored by changes in the skin conductance. […] An isolated skin conductance coupler (Mindlife) applied a constant 0.5V (DC) potential across the electrode pair and measured the conductivity at a sample rate of 10 Hz.
Scoring of the EDA signal: During the 3 minutes acclimatization period (subjected only to a 57 dB background white noise), all electro-dermal responses were counted as non-specific EDAs. […]

Series [3] concerns children suffering from ADHD. Description: Startle response, eye blink probability to startle stimuli. In kind it is in vivo, human. As to conditions: baseline higher than controls. The source says: (§1) Test subjects were escorted by their parents, and were asked not to take the MPH treatment in the morning of the experiment, and not to drink stimulating beverages such as coffee or energy drinks. The parents signed the consent form and provided the demographic data, following which the subject commenced the 3 steps procedure: • Baseline ASAT and EDA tests: The child was asked to sit on a stable chair in front of a computer screen, connected with EDA and EMG electrodes and requested to follow the instructions before wearing the headphones: • “You will be hearing different types of tones, some will be powerful and some will be moderate. […] When the session ends, all tones will be terminated” • Children diagnosed with ADHD were asked to take the MPH treatment and come back to the test room after 50 minutes. Controls were asked to take a break and return to the test room after 50 minutes. • Post 1-hour ASAT and EDA tests were conducted as at step 1. Auditory Sustained Attention Test (ASAT) […]
(§2) The session starts with 3 minutes of acclimatization period with 57 dB background noise level that is delivered continuously throughout the session. […] Ten “No stimulus” trials were recorded in order to evaluate baseline noise levels. […] The PPI is calculated as percent of the habituated/inhibited response as follows: 100−(max response to “pre+pulse” trial/max response to “pulse alone” trial×100).

For series [4], the system named is children suffering from ADHD. As to the kind of experiment: Auditory Sustained Attention Test (ASAT, pre-pulse inhibition) before and 1 hour after MPH. The conditions noted are these: re-test about 1 hour after taking MPH, versus baseline. The format is in vivo, human.
Excerpt: as §1, §2

Consider `COC(=O)C(c1ccccc1)C1CCCCN1` (stereo not shown) [MPH, methylphenidate], for which the “long term hormonal effects” value in series [1] is “long term hormonal alterations related to hyper-anxiety and aggression”. The “EDAs (both specific and non-specific) following MPH treatment” value in series [2] is given as “do not alternate”. The “eye blink probabilities to startle stimuli following MPH treatment” value in series [3] is given as “do not alternate”. Moreover, in series [4], the “ASAT performance (impairment across all pre-pulse intensities) following MPH treatment” value is “significantly recovered”.
